Laboratory results from US20210161880A1, “METHODS FOR TREATING DEMENTIA RELATED PSYCHOSIS” (ACADIA Pharmaceuticals Inc., priority 2019, published 2021).

Experiments:
Assay type in all cases: in vivo, human
[1] = tested on: patients with dementia related psychosis; test: Open-label period of relapse prevention study of pimavanserin; settings: for patients meeting response criteria: ≥30% reduction on SAPS-H+D total score and CGI-I score of 1 or 2
Procedure: (§1) A double-blind, placebo-controlled study of the efficacy and safety of pimavanserin was conducted to evaluate relapse prevention in patients with dementia related psychosis. The primary endpoint of this study was time from randomization to relapse in the double-blind period. The secondary endpoint of this study was time from randomization to discontinuation from the double-blind period for any reason.
Male or female patients ≥50 and ≤90 years of age were eligible if they met the criteria for All-cause Dementia according to NIA-AA guidelines. Eligible patients met the clinical criteria for one of the following disorders, with or without cerebrovascular disease (CVD): Dementia associated with Parkinson's disease; Dementia with Lewy bodies; Possible or probable Alzheimer's disease; Frontotemporal degeneration spectrum disorders, including possible or probable behavioral variant frontotemporal dementia, progressive supranuclear palsy, or corticobasal degeneration; or Vascular dementia, including post-stroke dementia, multi-infarct dementia and/or subcortical ischemic vascular dementia (SIVD). […] In addition, eligible patients had all of the following scores at Visit 1 (Screening) and Visit 2 (open-label Baseline): SAPS-H+D total score ≥10; CGI-S ≥4 (moderately ill); and SAPS-H+D global item (H7 or D13) score ≥4 (marked). Patients with a known personal or family history or symptoms of long QT syndrome were excluded.
(§2) The study consisted of a screening period of up to 4 weeks (3-28 days); an open-label period of 12 weeks; a double-blind period of up to 26 weeks; and an approximately 4-week safety follow-up period.
During the open-label period, patients started pimavanserin 34 mg once daily (QD) by mouth beginning at Week 0 (open-label Baseline). Pimavanserin was continued daily at this dose level for at least the first week of treatment. After the first week, if the patient was unable to tolerate the 34 mg dose, the dose was decreased to 20 mg (provided as two 10 mg tablets) at any study visit (scheduled or unscheduled) until Week 4 (Visit 4). If the dose was decreased to 20 mg it may later be increased to 34 mg based on investigator judgment at any study visit (scheduled or unscheduled) until Week 4 (Visit 4). After Week 4 (Visit 4), the dose of study drug remained fixed at either 34 mg or 20 mg once daily.
The response criteria was ≥30% reduction from open-label baseline on SAPS-H+D total score and CGI-I score of 1 or 2. Analysis was restricted to eligible patients at the visit. A patient was eligible for the visit if the number of days between minimum (study discontinuation date, end of treatment date) and the first open-label dose exceeded the lower limit of the analysis visit window for the visit.

[2] = tested on: patients with dementia related psychosis; test: Double-blind, placebo-controlled period: relapse and all-cause discontinuation; settings: for Hazard Ratio, relapse / Odds ratio, relapse: vs placebo
Procedure: as §1, §2
Randomization occurred at the double-blind Baseline visit (Week 12). Patients were randomly assigned 1:1 to continue their pimavanserin dose (34 mg or 20 mg) or matching placebo. Randomization was stratified by most likely dementia subtype or most prominent cause of dementia (Alzheimer's disease or frontotemporal dementia spectrum disorders, vascular dementia, or Parkinson's disease dementia or dementia with Lewy bodies) and by region.
Relapse criteria were assessed weekly for the first 2 weeks after randomization (Weeks 13 and 14), every 2 weeks until Week 26, and every 4 weeks through Week 38. Relapse criteria was also evaluated at unscheduled visits. Any patients who met any of the relapse criteria after randomization were withdrawn from study drug and entered the safety follow-up period of the study.

[3] = tested on: patients with dementia related psychosis; test: Safety and tolerability (MMSE, long-term tolerability)
Procedure: Safety and tolerability of pimavanserin was also evaluated compared to placebo in patients with dementia related psychosis who have been stabilized on pimavanserin therapy. Safety endpoints were: treatment-emergent adverse events (TEAEs); serious adverse events (SAEs); withdrawals due to adverse events (AEs); clinically important changes in other safety assessments; Global Clinician Assessment of Suicidality (GCAS) score; Mini-Mental State Examination (MMSE) score; and Extrapyramidal Symptom Rating Scale (ESRS) score.

[4] = open-label period, Overall N = 351

CC(C)COc1ccc(CNC(=O)N(Cc2ccc(F)cc2)C2CCN(C)CC2)cc1 [pimavanserin, N-(4-Fluorophenylmethyl)-N-(1-methylpiperidin-4-yl)-N′-(4-(2-methylpropyloxy)phenylmethyl)carbamide]
psychosis (total SAPS-H+D change), exploratory analysis ([1]; across subtypes of dementia, baseline MMSE, baseline dementia severity, FIGS. 4A-C): substantially reduced psychosis
patients meeting response criteria ([1]; by Week 4, FIG. 2A): about 50%
patients meeting response criteria ([1]; by Week 8, FIG. 2B): about 70%
total SAPS-H+D reduction in change from open-label baseline ([1]; by Week 12, FIG. 1): 75.2%
CGI-S score reduction from baseline ([1]; by Week 12, overall population and across subtypes of dementia, FIG. 5A, 5B): about 2
response rate across subgroups ([1]; dementia subtypes, baseline MMSE, age, psychosis severity, FIG. 2C-2F): consistently high response rate
patients demonstrating sustained response ([1]; open label period): > 60%
Early Termination: Adverse Event, (%) ([1]; open-label period, AD N = 229): (7.9) %
Early Termination: Lack of Response in Open Label, (%) ([1]; open-label period, AD N = 229): (20.1) %
Randomized to Double-blind Period, (%) ([1]; open-label period, AD N = 229): (59.8) %
Early Termination: Adverse Event, (%) ([1]; open-label period, DLB N = 22): (4.5) %
Early Termination: Lack of Response in Open Label, (%) ([1]; open-label period, DLB N = 22): (40.9) %
Randomized to Double-blind Period, (%) ([1]; open-label period, DLB N = 22): (45.5) %
Early Termination: Adverse Event, (%) ([1]; open-label period, FTD N = 6): (16.7) %
Early Termination: Lack of Response in Open Label, (%) ([1]; open-label period, FTD N = 6): (33.3) %
Randomized to Double-blind Period, (%) ([1]; open-label period, FTD N = 6): (50) %
Early Termination: Adverse Event, (%) [1, 4]: (7.7) %
Early Termination: Adverse Event, Number [1, 4]: 27
Early Termination: Death, (%) [1, 4]: (0.3) %
Early Termination: Death, Number [1, 4]: 1
Early Termination: Lack of Response in Open Label, (%) [1, 4]: (19.9) %
Early Termination: Lack of Response in Open Label, Number [1, 4]: 70
Randomized to Double-blind Period, (%) [1, 4]: (61.8) %
Randomized to Double-blind Period, Number [1, 4]: 217
Early Termination: Adverse Event, (%) ([1]; open-label period, PDD N = 59): (6.8) %
Early Termination: Death, (%) ([1]; open-label period, PDD N = 59): (1.7) %
Early Termination: Lack of Response in Open Label, (%) ([1]; open-label period, PDD N = 59): (15.3) %
Randomized to Double-blind Period, (%) ([1]; open-label period, PDD N = 59): (71.2) %
Early Termination: Adverse Event, (%) ([1]; open-label period, VaD N = 35): (8.6) %
Early Termination: Lack of Response in Open Label, (%) ([1]; open-label period, VaD N = 35): (11.4) %
Randomized to Double-blind Period, (%) ([1]; open-label period, VaD N = 35): (71.4) %
Incidence of relapse, (%) ([2]; AD): 13.1%
Incidence of relapse, n/N ([2]; AD): 8/61
Hazard Ratio, relapse ([2]; AD): 0.618
Odds ratio, relapse ([2]; AD): 0.5175
Hazard Ratio (Pimavanserin/Placebo), relapse ([2]; Cox regression, 95% CI (0.172, 0.727), one-sided p 0.0023): 0.353
Hazard Ratio (Pimavanserin/Placebo), all-cause discontinuation ([2]; Cox regression, 95% CI (0.261, 0.785), one-sided p 0.0024): 0.452
Incidence of relapse, (%) ([2]; DLB): 0.0%
Incidence of relapse, n/N ([2]; DLB): 0/6
Incidence of relapse, (%) ([2]; FTD): 100%
Incidence of relapse, n/N ([2]; FTD): 1/1
Incidence of relapse, (%) ([2]; Overall): 12.6%
Incidence of relapse, n/N ([2]; Overall): 12/95
Hazard Ratio, relapse ([2]; Overall): 0.353
Odds ratio, relapse ([2]; Overall): 0.3666
Incidence of relapse, (%) ([2]; PDD): 6.7%
Incidence of relapse, n/N ([2]; PDD): 1/15
Hazard Ratio, relapse ([2]; PDD): 0.054
Odds ratio, relapse ([2]; PDD): 0.0714
Incidence of relapse, (%) ([2]; VaD): 16.7%
Incidence of relapse, n/N ([2]; VaD): 2/12
Hazard Ratio, relapse ([2]; VaD): 1.065
Odds ratio, relapse ([2]; VaD): 1.00
reduction of risk of relapse of dementia related psychosis (psychotic exacerbation) compared to placebo ([2]; double-blind period, FIG. 6): 2.8 times
reduction of risk of all-cause discontinuation compared to placebo ([2]; double-blind period, FIG. 7): 2.2 ×
Completed Week 26 Without a Relapse, (%) ([2]; double-blind period, N = 95): 38.9%
Number of Patients Discontinued for Any Reason, (%) ([2]; double-blind period, N = 95): 22.1%
Number of Patients Having a Relapse Event, (%) ([2]; double-blind period, N = 95): 12.6%
patients on placebo more likely to drop out of the trial for any reason ([2]; placebo vs pimavanserin): 2.2 times
tolerability ([3]; 34 mg, given long term in the elderly population): well tolerated
impact on cognition (MMSE) ([3]; over 9 months of treatment, FIG. 8): no negative impact
